Results: PMC6021502, “Cannabigerol Action at Cannabinoid CB1 and CB2 Receptors and at CB1–CB2 Heteroreceptor Complexes” (Frontiers in Pharmacology, 2018)
Where two headings read alike, the source gives them in different places.

Tests used:
TRPA1 = conditions: ref De Petrocellis et al., cited from earlier work
CB2R = system: T1, CB2R; experiment: cAMP determination in HEK-293T cells; type: cell-based, human
T1 construct: expressed in transfected cells; host or cells: HEK-293T, transient transfection (PEI)
Experimental: (§1) HEK-293T cells were grown in DMEM medium (Gibco, Paisley, Scotland, United Kingdom) supplemented with 2 mM L-glutamine, 100 U/mL penicillin/streptomycin, MEM Non-Essential Amino Acids Solution (1/100) and 5% (v/v) heat inactivated Foetal Bovine Serum (FBS) (Invitrogen, Paisley, Scotland, United Kingdom). […] Cells were transiently transfected with the PEI (Polyethylenimine, Sigma, St. Louis, MO, United States) method as previously described ([Medrano et al., 2017]; [Navarro et al., 2018b]) and used for functional assays 48 h later (unless otherwise stated).
(§2) Signaling experiments have been performed as previously described ([Navarro et al., 2010], [2016], [2018b]; [Hinz et al., 2018]). Two hours before initiating the experiment, HEK-293T cell-culture medium was replaced by serum-starved DMEM medium. Then, cells were detached, resuspended in growing medium containing 50 μM zardaverine and placed in 384-well microplates (2,500 cells/well). Cells were pretreated (15 min) with CBG -or vehicle- and stimulated with agonists (15 min) before adding 0.5 μM forskolin or vehicle. Readings were performed after 15 min incubation at 25°C. HTRF energy transfer measures were performed using the Lance Ultra cAMP kit (PerkinElmer, Waltham, MA, United States). Fluorescence at 665 nm was analyzed in a PHERAstar Flagship microplate reader equipped with an HTRF optical module (BMG Lab Technologies, Offenburg, Germany).

CB1R = system: T2, CB1R; experiment: cAMP determination in HEK-293T cells; type: cell-based, human
T2 construct: expressed in transfected cells; host or cells: HEK-293T, transient transfection (PEI)
Experimental: as §1, §2

human CB2 receptor = target: T3, human CB2 receptor (Homo sapiens, UniProt P34972); experiment: [3H]-WIN-55,212-2 competition binding, CHO membranes
T3 construct: expressed in transfected cells; membranes
T3 sequence (P34972 whole entry): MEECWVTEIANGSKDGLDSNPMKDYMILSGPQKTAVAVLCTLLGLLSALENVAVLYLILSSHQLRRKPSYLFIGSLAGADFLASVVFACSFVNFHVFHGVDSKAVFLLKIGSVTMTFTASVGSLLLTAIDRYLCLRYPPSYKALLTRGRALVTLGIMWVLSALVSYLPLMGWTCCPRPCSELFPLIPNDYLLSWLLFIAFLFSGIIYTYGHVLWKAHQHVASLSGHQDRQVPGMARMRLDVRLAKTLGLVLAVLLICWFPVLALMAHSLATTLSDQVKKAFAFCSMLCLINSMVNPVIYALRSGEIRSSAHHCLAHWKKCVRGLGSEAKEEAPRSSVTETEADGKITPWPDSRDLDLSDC

mouse brain membranes = system: mouse brain membranes; set-up: method as in Cascio et al., 2010; conditions: 10 μM CBG, mouse brain membranes treated with AEA or CP-55940; ref Cascio et al., 2010; cited from earlier work

For `CCCCCc1cc(O)c(C/C=C(\C)CCC=C(C)C)c(O)c1` [CBG, cannabigerol], the “EC50 values, transient receptor potential channels of ankyrin type-1” value (TRPA1; 2008) is given as “micromolar range”, the EC50 (TRPA1; 2011, read-out: EC50, agonist/desensitizer of TRPA1) is given as 700 nM and the “Effect on AEA and JWH133 effects on forskolin-induced cAMP levels” value (CB2R; 100 nM or 1 μM CBG pretreatment, 100 nM AEA or JWH133, CB2R) is given as “reduced the effects of AEA and JWH133”. For the same compound, the “Effect on forskolin-induced cAMP levels” value (CB2R; CBG alone, 1 nM to 10 μM, CB2R-expressing cells) was “small and similar to that exerted in CB1R-expressing cells”, the “Effect on AEA and ACEA induced effects on forskolin-induced cAMP” value (CB1R; 100 nM or 1 μM CBG pretreatment, 100 nM AEA or ACEA, CB1R) was “significant decrease” and the “Effect on forskolin induced cAMP levels” value (CB1R; CBG alone, 1 nM to 10 μM, CB1R-expressing cells) was “small decrease”. The Ki (human CB2 receptor; radioligand 3 nM [3H]-WIN-55,212-2, CHO membranes, read-out: CB2 – Ki) was 2660 nM, the Ki (human CB2 receptor; radioligand [3H]-WIN-55,212-2, read-out: Ki, competition of [3H]-WIN-55,212-2 binding to CB2R) was 2700 nM and the “Effect on [35S]GTPγS binding” value (mouse brain membranes) was “antagonized”.
